The test has as its system peripheral blood mononuclear cells (PBMC) stimulated with allogeneic PBMC or EBV-transformed human B cells (RPMI1788). Description: Mixed lymphocyte reaction (MLR) assay. Format: cell-based. The note with it: Homo sapiens, RPMI-1788; MLR assay of example 319; read-out: MLR IC50. The protocol:
Pyrido[3,2-d]pyrimidine derivatives were first dissolved (10 mM) in dimethyl-sulfoxide (hereinafter referred as DMSO) and further diluted in culture medium before use for the following in vitro experiments. […] Some pyrido[3,2-d]pyrimidine derivatives described herein were tested in the following mixed lymphocyte reaction (MLR) assay.
Peripheral blood mononuclear cells (hereinafter referred as PBMC) were isolated from heparinized peripheral blood by density gradient centrifugation over Lymphoprep (Nycomed, Maorstua, Norway). Allogeneic PBMC or Eppstein-Barr Virus-transformed human B cells [commercially available under the trade name RPM11788 (ATCC name CCL156)] which strongly express B7-1 and B7-2 antigens were used as stimulator cells after irradiation with 30 Gy. MLR was performed in triplicate wells. After 5 days incubation at 37° C., 1 μCi [^3H]-thymidine was added to each cup. After a further 16 hours incubation, cells were harvested and counted in a β-counter. Inhibition of proliferation by a compound described in some of the present examples was counted while using the formula: [formula] wherein cpm is the thymidine count per minute. The MLR assay is regarded by those skilled in the art as an in vitro analogue of the transplant rejection since it is based on the recognition of allogeneic major histocompatibility antigens on the stimulator leukocytes, by responding lymphocytes.
`C=CC(=O)N1CCN(c2nc(N)nc3ccc(-c4ccc(OC)c(OC)c4)nc23)CC1` [Example 393, 2-amino-4-[4-(2-propenoyl)piperazin-1-yl]-6-(3,4-dimethoxyphenyl)-pyrido[3,2-d]pyrimidine]: the concentration for half-maximal inhibition (IC50) – broadly, the concentration at which inhibition is half-maximal – stood at 0.4 µM.
The result for `COc1ccc(-c2ccc3nc(N)nc(N4CCN(C(=O)CNC(=O)OC(C)(C)C)CC4)c3n2)cc1OC` [Example 396, 2-amino-4-{4-[N-(tert-butoxycarbonyl)-glycyl]-piperazin-1-yl}-6-(3,4-di-methoxyphenyl)-pyrido[3,2-d]pyrimidine] reads 0.05 µM; that for `Nc1nc(N2CCN(C(=O)COc3ccc(Cl)cc3)CC2)c2nc(-c3ccc(C(F)(F)F)cc3)ccc2n1` [Example 399, 2-amino-4-[4-(4-chlorophenoxyacetyl)piperazin-1-yl]-6-(4-trifluoromethylphenyl)-pyrido[3,2-d]pyrimidine], 0.5 µM; that for `N#Cc1ccc(-c2ccc3nc(N)nc(N4CCN(C(=O)COc5ccc(Cl)cc5)CC4)c3n2)cc1` [Example 400, 2-amino-4-[4-(4-chlorophenoxyacetyl)piperazin-1-yl]-6-(4-cyanophenyl)pyrido-[3,2-d]pyrimidine], 0.05 µM.
Turning to `Nc1nc(N2CCN(C(=O)COc3ccc(Cl)cc3)CC2)c2nc(-c3cccc(F)c3)ccc2n1` [Example 401, 2-amino-4-[4-(4-chlorophenoxyacetyl)piperazin-1-yl]-6-(3-fluorophenyl)pyrido-[3,2-d]pyrimidine], the IC50 was 0.3 µM.
With `Nc1nc(N2CCN(C(=O)COc3ccc(Cl)cc3)CC2)c2nc(-c3ccoc3)ccc2n1` [Example 402, 2-amino-4-[4-(4-chlorophenoxyacetyl)piperazin-1-yl]-6-(furan-3-yl)pyrido-[3,2-d]pyrimidine] the figure was 0.03 µM.
The result for `Nc1nc(N2CCN(C(=O)COc3ccc(Cl)cc3)CC2)c2nc(-c3ccsc3)ccc2n1` [Example 403, 2-amino-4-[4-(4-chlorophenoxyacetyl)piperazin-1-yl]-6-(thiophen-3-yl)pyrido-[3,2-d]pyrimidine] reads 0.04 µM; that for `Nc1nc(N2CCN(C(=O)COc3ccc(Cl)cc3)CC2)c2nc(-c3ccc(F)c(F)c3)ccc2n1` [Example 404, 2-amino-4-[4-(4-chlorophenoxyacetyl)piperazin-1-yl]-6-(3,4-difluorophenyl)pyrido-[3,2-d]pyrimidine], 0.04 µM.
The result for `Nc1nc(N2CCN(C(=O)COc3ccc(Cl)cc3)CC2)c2nc(-c3ccc(Cl)cc3)ccc2n1` [Example 405, 2-amino-4-[4-(4-chlorophenoxyacetyl)piperazin-1-yl]-6-(4-chlorophenyl)pyrido-[3,2-d]pyrimidine] reads 0.05 µM.
As to `Nc1nc(N2CCN(C(=O)COc3ccc(Cl)cc3)CC2)c2nc(-c3cccc(Cl)c3)ccc2n1` [Example 406, 2-amino-4-[4-(4-chlorophenoxyacetyl)piperazin-1-yl]-6-(3-chlorophenyl)pyrido-[3,2-d]pyrimidine], the IC50 turned out to be 0.07 µM.
With `Nc1nc(N2CCN(C(=O)COc3ccc(Cl)cc3)CC2)c2nc(-c3ccncc3)ccc2n1` [Example 407, 2-amino-4-[4-(4-chlorophenoxyacetyl)piperazin-1-yl]-6-(pyridin-4-yl)pyrido-[3,2-d]pyrimidine] the figure was 0.005 µM; with `Nc1nc(N2CCN(C(=O)COc3ccc(Cl)cc3)CC2)c2nc(-c3ccc(F)c(Cl)c3)ccc2n1` [Example 408, 2-amino-4-[4-(4-chlorophenoxyacetyl)piperazin-1-yl]-6-(3-chloro-4-fluorophenyl)-pyrido-[3,2-d]pyrimidine], 0.2 µM.
As for `Nc1nc(N2CCN(C(=O)COc3ccc(Cl)cc3)CC2)c2nc(-c3cccnc3)ccc2n1` [Example 409, 2-amino-4-[4-(4-chlorophenoxyacetyl)piperazin-1-yl]-6-(pyridin-3-yl)pyrido-[3,2-d]pyrimidine], the IC50 is 0.005 µM.
The result for `COc1ccc(-c2ccc3nc(N)nc(N4CCN(C(=O)COc5ccc(Cl)cc5)CC4)c3n2)cn1` [Example 410, 2-amino-4-[4-(4-chlorophenoxyacetyl)piperazin-1-yl]-6-(2-methoxypyridin-5-yl)pyrido-[3,2-d]pyrimidine] reads 0.009 µM; that for `Cc1noc(C)c1-c1ccc2nc(N)nc(N3CCN(C(=O)COc4ccc(Cl)cc4)CC3)c2n1` [Example 411, 2-amino-4-[4-(4-chlorophenoxyacetyl)piperazin-1-yl]-6-(3,5-dimethylisoxazol-4-yl)pyrido-[3,2-d]pyrimidine], 0.034 µM; that for `Nc1nc(N2CCN(C(=O)COc3ccc(Cl)cc3)CC2)c2nc(-c3ccc4[nH]ccc4c3)ccc2n1` [Example 412, 2-amino-4-[4-(4-chlorophenoxyacetyl)piperazin-1-yl]-6-(indol-5-yl)pyrido-[3,2-d]pyrimidine], 0.039 µM.
As to `Nc1nc(N2CCN(C(=O)COc3ccc(Cl)cc3)CC2)c2nc(-c3ccc(C(=O)O)s3)ccc2n1` [Example 413, 2-amino-4-[4-(4-chlorophenoxyacetyl)piperazin-1-yl]-6-(2-carboxythiophen-5-yl)pyrido-[3,2-d]pyrimidine], the IC50 is > 10 µM.
With `N#Cc1cccc(-c2ccc3nc(N)nc(N4CCN(C(=O)COc5ccc(Cl)cc5)CC4)c3n2)c1` [Example 414, 2-amino-4-[4-(4-chlorophenoxyacetyl)piperazin-1-yl]-6-(3-cyanophenyl)pyrido-[3,2-d]pyrimidine] the figure was 0.02 µM.
For `Nc1nc(N2CCN(C(=O)COc3ccc(Cl)cc3)CC2)c2nc(-c3ccc(O)cc3)ccc2n1` [Example 415, 2-amino-4-[4-(4-chlorophenoxyacetyl)piperazin-1-yl]-6-(4-hydroxyphenyl)pyrido-[3,2-d]pyrimidine], the IC50 was found to be 0.006 µM.
With `N#Cc1ccccc1-c1ccc2nc(N)nc(N3CCN(C(=O)COc4ccc(Cl)cc4)CC3)c2n1` [Example 416, 2-amino-4-[4-(4-chlorophenoxyacetyl)piperazin-1-yl]-6-(2-cyanophenyl)pyrido-[3,2-d]pyrimidine] the figure was 0.012 µM.
Consider `CS(=O)(=O)c1ccc(-c2ccc3nc(N)nc(N4CCN(C(=O)COc5ccc(Cl)cc5)CC4)c3n2)cc1` [Example 417, 2-amino-4-[4-(4-chlorophenoxyacetyl)piperazin-1-yl]-6-(4-(methanesulfonyl)-phenyl)pyrido-[3,2-d]pyrimidine], for which the IC50 came out at 0.028 µM.
With `COc1cccc(-c2ccc3nc(N)nc(N4CCN(C(=O)COc5ccc(Cl)cc5)CC4)c3n2)c1` [Example 418, 2-amino-4-[4-(4-chlorophenoxyacetyl)piperazin-1-yl]-6-(3-methoxyphenyl)pyrido-[3,2-d]pyrimidine] the figure was 0.057 µM; with `Nc1cccc(-c2ccc3nc(N)nc(N4CCN(C(=O)COc5ccc(Cl)cc5)CC4)c3n2)c1` [Example 419, 2-amino-4-[4-(4-chlorophenoxyacetyl)piperazin-1-yl]-6-(3-aminophenyl)pyrido-[3,2-d]pyrimidine], 0.02 µM.
With `Cc1cc(-c2ccc3nc(N)nc(N4CCN(C(=O)COc5ccc(Cl)cc5)CC4)c3n2)ccc1F` [Example 420, 2-amino-4-[4-(4-chlorophenoxyacetyl)piperazin-1-yl]-6-(4-fluoro-3-methylphenyl)-pyrido-[3,2-d]pyrimidine] the figure was 0.3 µM.
Turning to `Nc1nc(N2CCN(C(=O)COc3ccc(Cl)cc3)CC2)c2nc(-c3ccccc3)ccc2n1` [Example 421, 2-amino-4-[4-(4-chlorophenoxyacetyl)piperazin-1-yl]-6-phenylpyrido-[3,2-d]pyrimidine], the concentration for half-maximal inhibition (IC50) turned out to be 0.049 µM.
`COc1ccccc1-c1ccc2nc(N)nc(N3CCN(C(=O)COc4ccc(Cl)cc4)CC3)c2n1` [Example 422, 2-amino-4-[4-(4-chlorophenoxyacetyl)piperazin-1-yl]-6-(2-methoxyphenyl)pyrido-[3,2-d]pyrimidine]: the IC50 was 0.1 µM.
The result for `Nc1nc(N2CCN(C(=O)COc3ccc(Cl)cc3)CC2)c2nc(-c3ccc(F)cc3F)ccc2n1` [Example 423, 2-amino-4-[4-(4-chlorophenoxyacetyl)piperazin-1-yl]-6-(2,4-difluorophenzyl)pyrido-[3,2-d]pyrimidine] reads 0.1 µM; that for `Nc1nc(N2CCN(C(=O)COc3ccc(Cl)cc3)CC2)c2nc(-c3ccccc3F)ccc2n1` [Example 424, 2-amino-4-[4-(4-chlorophenoxyacetyl)piperazin-1-yl]-6-(2-fluorophenyl)pyrido-[3,2-d]pyrimidine], 0.11 µM; that for `Nc1nc(N2CCN(C(=O)COc3ccc(Cl)cc3)CC2)c2nc(-c3cccc(Cl)c3Cl)ccc2n1` [Example 425, 2-amino-4-[4-(4-chlorophenoxyacetyl)piperazin-1-yl]-6-(2,3-dichlorophenyl)-pyrido-[3,2-d]pyrimidine], 0.3 µM.
The result for `COc1ccc(-c2ccc3nc(N)nc(N4CCN(C(=O)COc5ccc(Cl)cc5)CC4)c3n2)cc1` [Example 426, 2-amino-4-[4-(4-chlorophenoxyacetyl)piperazin-1-yl]-6-(4-methoxyphenyl)pyrido-[3,2-d]pyrimidine] reads 0.03 µM; that for `Nc1nc(N2CCN(C(=O)COc3ccc(Cl)cc3)CC2)c2nc(-c3ccc(Cl)cc3Cl)ccc2n1` [Example 427, 2-amino-4-[4-(4-chlorophenoxyacetyl)piperazin-1-yl]-6-(2,4-dichlorophenyl)-pyrido-[3,2-d]pyrimidine], 0.3 µM.

These data come from patent publication US20090264415A2 (priority 2004, published 2009).
